In patent US9963444B2, “N-acylethanolamine hydrolyzing acid amidase (NAAA) inhibitors and their use thereof” (Northeastern University, priority 2014, dated 2018) one finds IC50 data, which are given here for 50 compounds.

pIC50: −log10 of the molar value.

For one assay, the target named is hNAAA (Homo sapiens (Human), UniProt Q02083). The assay can be described thus: Fluorescence-based NAAA inhibition assay with fluorogenic substrate PAMCA.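 Also: compound preincubated 15 min at room temperature with hNAAA, then PAMCA added at 5 µM, reacted 120 min at 37 °C, AMC release read by fluorescence (ex 360, em 460 nm).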
Chain of hNAAA (Q02083 29-125): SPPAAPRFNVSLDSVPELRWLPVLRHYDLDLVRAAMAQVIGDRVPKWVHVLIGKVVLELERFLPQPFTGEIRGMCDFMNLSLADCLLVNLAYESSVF
Chain of hNAAA (Q02083 126-359): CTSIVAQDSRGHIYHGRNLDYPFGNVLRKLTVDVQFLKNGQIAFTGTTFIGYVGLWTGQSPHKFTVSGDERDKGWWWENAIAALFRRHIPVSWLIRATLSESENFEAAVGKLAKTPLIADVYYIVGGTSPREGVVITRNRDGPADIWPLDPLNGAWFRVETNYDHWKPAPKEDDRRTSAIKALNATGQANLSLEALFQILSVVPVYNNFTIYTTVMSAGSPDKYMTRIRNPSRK
Details: not given
A word on the pIC50: it is the IC50 on a negative log10 scale, so that one unit is a factor of ten. High values mean a low IC50, low ones a high IC50. Compound `S=C=NCCCCCCCCCCc1ccccn1` [Example 18, 2-(10-Isothiocyanatodecyl)pyridine] had a pIC50 of 7.00 to 8.00.

Take `S=C=NCCCCCCCCCCc1ccncc1` [Example 19, 4-(10-Isothiocyanatodecyl)pyridine]: the pIC50 is 7.00 to 8.00.

In the case of `S=C=NCCCCCCCCCCc1ncccn1` [Example 20, 2-(10-Isothiocyanatodecyl)pyrimidine], the pIC50 was 7.00 to 8.00.

As for `S=C=NCCCCCCCCCCCc1ccccc1` [Example 21, (11-Isothiocyanatoundecyl)benzene], the pIC50 is 7.00 to 8.00.

On to `S=C=NCCCCCCCCCc1ccccc1` [Example 22, (9-Isothiocyanatononyl)benzene], for which the pIC50 is 7.00 to 8.00.

Take `S=C=NCCOCCOCCOCc1ccccc1` [Example 23, ((2-(2-(2-Isothiocyanatoethoxy)ethoxy)ethoxy)methyl)benzene]: the pIC50 is 7.00 to 8.00.

Take `S=C=NCCCOCc1cccc(-c2ccccc2)c1` [Example 24, 3-((3-Isothiocyanatopropoxy)methyl)-1,1′-biphenyl]: the pIC50 was 7.00 to 8.00.

Compound `S=C=NCCCOCc1ccc(-c2ccccc2)cc1` [Example 25, 4-((3-Isothiocyanatopropoxy)methyl)-1,1′-biphenyl] gave a pIC50 of 7.00 to 8.00.

In turn, `S=C=NCCCOCc1ccc(Oc2ccccc2)cc1` [Example 26, 1((3-Isothiocyanatopropoxy)methyl)-4-phenoxybenzene] showed a negative logarithm of the IC50 (pIC50) of 7.00 to 8.00.

`S=C=NCCCCCN1CCC(Cc2ccccc2)CC1` [Example 27, 4-Benzyl-1-(5-isothiocyanatopentyl)piperidine]: the pIC50 was 7.00 to 8.00.

`Cc1ccc(-c2ccc(CO[C@H]3C[C@H](N=C=S)C3)cc2)cc1` [Example 28, 4-(((1R,3R)-3-Isothiocyanatocyclobutoxy)methyl)-4′-methyl-1,1′-biphenyl] showed a pIC50 of 6.00 to 6.96.

Compound `Cc1ccc(-c2ccc(CO[C@H]3C[C@@H](N=C=S)C3)cc2)cc1` [Example 29, 4-(((1S,3S)-3-Isothiocyanatocyclobutoxy)methyl)-4′-methyl-1,1′-biphenyl] gave a pIC50 of 7.00 to 8.00.

Compound `S=C=N[C@H]1C[C@@H](OCc2ccc(-c3ccccc3)cc2)C1` [Example 31, 4-(((1S,3S)-3-isothiocyanatocyclobutoxy)methyl)-1,1′-biphenyl] gave a pIC50 of 6.00 to 6.96.

In the case of `Fc1ccc(-c2ccc(CO[C@H]3C[C@@H](N=C=S)C3)c(F)c2)cc1` [Example 32, 3,4′-Difluoro-4-(((1S,3S)-3-isothiocyanatocyclobutoxy)methyl)-1,1′-biphenyl], the pIC50 was 6.00 to 6.96.

The compound `COc1ccc(-c2ccc(CO[C@H]3C[C@@H](N=C=S)C3)c(F)c2)cc1F` [Example 33, 3,3′-Difluoro-4-(((1S,3S)-3-isothiocyanatocyclobutoxy)methyl)-4′-methoxy-1,1′-biphenyl] gave a pIC50 of 7.00 to 8.00.

Compound `COc1cccc(-c2ccc(CO[C@H]3C[C@@H](N=C=S)C3)cc2)c1` [Example 35, 4′-(((1S,3S)-3-isothiocyanatocyclobutoxy)methyl)-3-methoxy-1,1′-biphenyl] gave a pIC50 of 7.00 to 8.00.

Take `CCOc1ccc(-c2ccc(CO[C@H]3C[C@@H](N=C=S)C3)c(F)c2)cc1F` [Example 36, 4-Ethoxy-3,3′-difluoro-4′-(((1S,3S)-3-isothiocyanatocyclobutoxy)methyl)-1,1′-biphenyl]: the pIC50 was 7.00 to 8.00.

In turn, `CC(C)Oc1ccc(-c2ccc(CO[C@H]3C[C@@H](N=C=S)C3)c(F)c2)cc1F` [Example 37, 3,3′-Difluoro-4-isopropoxy-4′-(((1S,3S)-3-isothiocyanatocyclobutoxy)methyl)-1,1′-biphenyl] gave a pIC50 of 6.00 to 6.96.

In the case of `Fc1cc(-c2ccc3c(c2)OCCO3)ccc1CO[C@H]1C[C@@H](N=C=S)C1` [Example 38, 6-(3-Fluoro-4-(((1S,3S)-3-isothiocyanatocyclobutoxy)methyl)phenyl)-2,3-dihydrobenzo[b][1,4]dioxine], the negative-log IC50 (pIC50) was 7.00 to 8.00.

Take `Fc1cc(-c2ccc3c(c2)OCO3)ccc1CO[C@H]1C[C@@H](N=C=S)C1` [Example 39, 5-(3-Fluoro-4-(((1S,3S)-3-isothiocyanatocyclobutoxy)methyl)phenyl)benzo[d][1,3]dioxole]: the pIC50 was 7.00 to 8.00.

`COc1ccc(-c2ccc(CO[C@H]3C[C@@H](N=C=S)C3)c(F)c2)cc1OC` [Example 40, 3-Fluoro-4-(((1S,3S)-3-isothiocyanatocyclobutoxy)methyl)-3′,4′-dimethoxy-1,1′-biphenyl] gave a negative-log IC50 (pIC50) of 7.00 to 8.00.

`S=C=N[C@H]1C[C@@H](OCc2ccc(Oc3ccccc3)cc2Br)C1` [Example 49, 2-Bromo-1-(((1S,3S)-3-isothiocyanatocyclobutoxy)methyl)-4-phenoxybenzene] gave a pIC50 of 6.00 to 6.96.

Compound `COc1ccc(-c2ccc(O[C@H]3C[C@H](N=C=S)C3)cc2)cc1F` [Example 51, 3-Fluoro-4′-((1R,3R)-3-isothiocyanatocyclobutoxy)-4-methoxy-1,1′-biphenyl] gave a pIC50 of 7.00 to 8.00.

Staying with this assay, now noted: read-out: NAAA Inhibition IC50 μM; purified hNAAA, PAMCA 5 μM, pH 4.5.
The IC50 is the concentration that gives 50% inhibition. In the case of `S=C=NCCCCc1ccccc1` [Example 1, (4-isothiocyanatobutyl)benzene], the IC50 is greater than 1 µM.

As to `S=C=NCCCCCc1ccccc1` [Example 2, (5-Isothiocyanatopentyl)benzene], the IC50 was greater than 1 µM.

With `S=C=NCCCCCCCCc1ccccc1` [Example 3, (8-Isothiocyanatooctyl)benzene], the half-inhibitory concentration (IC50) was greater than 1 µM.

As to `S=C=NCCCCCCCc1ccc2ccccc2c1` [Example 5, 2-(7-Isothiocyanatoheptyl)naphthalene], the IC50 was greater than 1 µM.

For the compound `CCCCCCCCCCCCCCCC(=O)NCCN=C=S` [Example 6, N-(2-isothiocyanatoethyl)palmitamide], the IC50 is greater than 1 µM.

On to `O=C(CCCCCCc1ccc2ccccc2c1)NCCN=C=S` [Example 7, N-(2-Isothiocyanatoethyl)-7-(naphthalene-2-yl)heptanamide], for which the IC50 was greater than 1 µM.

On to `S=C=Nc1ccc(Cc2ccncc2)cc1` [Example 8, 4-(4-Isothiocyanatobenzyl)pyridine], for which the IC50 was greater than 1 µM.

As for `S=C=NCCN1CCN(Cc2ccccc2)CC1` [Example 9, 1-Isothiocyanato-2-(4-benzylpiperazino)ethane], the IC50 was greater than 1 µM.

Take `S=C=NCc1ccc(N2CCOCC2)cc1` [Example 10, 4-(4-(Isothiocyanatomethyl)phenyl)morpholine]: the IC50 was greater than 1 µM.

Regarding `S=C=NCCN1CCC(Cc2ccccc2)CC1` [Example 11, 4-Benzyl-1-(2-isothiocyanatoethyl)piperidine], the IC50 is greater than 1 µM.

In the case of `S=C=NCc1ccc(CN2CCOCC2)cc1` [Example 12, 4-(Morpholinomethyl)benzylisothiocyanate], the IC50 was greater than 1 µM.

For the compound `O=C(OCc1ccccc1)N1CCC(CN=C=S)CC1` [Example 13, Benzyl 4-(isothiocyanatomethyl)tetrahydro-1(2H)-pyridinecarboxylate], the IC50 is greater than 1 µM.

`Cc1cncc(Oc2ccc(CN=C=S)cc2)n1` [Example 14, 2-(4-(Isothiocyanatomethyl)phenoxy)-6-methylpyrazine]: the IC50 was greater than 1 µM.

As to `S=C=NCc1ccc(COc2ccccc2)cc1` [Example 15, 1-(Isothiocyanatomethyl)-4-(phenoxymethyl)benzene], the IC50 was greater than 1 µM.

Regarding `FC(F)(F)c1ccccc1CCCCCCCCCCN=C=S` [Example 16, 1-(10-Isothiocyanatodecyl)-2-(trifluoromethyl)benzene], the half-inhibitory concentration (IC50) is greater than 1 µM.

For `COc1ccc(CCCCCCCCCCN=C=S)cc1` [Example 17, 1-(10-Isothiocyanatodecyl)-4-methoxybenzene], the IC50 is greater than 1 µM.

Regarding `S=C=N[C@H]1C[C@H](OCc2ccc(-c3ccccc3)cc2)C1` [Example 30, 4-(((1R,3R)-3-isothiocyanatocyclobutoxy)methyl)-1,1′-biphenyl], the IC50 was greater than 1 µM.

For `COc1cccc(-c2ccc(CO[C@H]3C[C@H](N=C=S)C3)cc2)c1` [Example 34, 4′-(((1R,3R)-3-isothiocyanatocyclobutoxy)methyl)-3-methoxy-1,1′-biphenyl], the IC50 was greater than 1 µM.

For the compound `COc1ncccc1-c1ccc(COC2CC(N=C=S)C2)c(F)c1` [Example 41, 3-(3-Fluoro-4-(((1R,3R)-3-isothiocyanatocyclobutoxy)methyl)phenyl)-2-methoxypyridine], the IC50 was in the range of 0.11 to 1 µM.

`COc1ccc(-c2ccc(COC3CC(N=C=S)C3)nc2)cc1F` [Example 42, 5-(3-Fluoro-4-methoxyphenyl)-2-(((1R,3R)-3-isothiocyanatocyclobutoxy)methyl)pyridine]: the IC50 lay within 0.01 to 0.1 µM.

For the compound `COc1ccc(-c2ccc(F)c(CO[C@H]3C[C@@H](N=C=S)C3)c2)cc1F` [Example 43, 3,4′-Difluoro-3′-(((1S,3S)-3-isothiocyanatocyclobutoxy)methyl)-4-methoxy-1,1′-biphenyl], the IC50 was greater than 1 µM.

On to `Fc1cc(Br)ccc1COC1CC(N=C=S)C1` [Example 44, 4-Bromo-2-fluoro-1-(((1R,3R)-3-isothiocyanatocyclobutoxy)methyl)benzene], for which the IC50 was in the range of 0.11 to 1 µM.

As to `Cc1noc(C)c1-c1ccc(COC2CC(N=C=S)C2)c(F)c1` [Example 45, 4-(3-Fluoro-4-(((1R,3R)-3-isothiocyanatocyclobutoxy)methyl)phenyl)-3,5-dimethylisoxazole], the IC50 was greater than 1 µM.

Take `Cn1cc(-c2ccc(COC3CC(N=C=S)C3)c(F)c2)cn1` [Example 46, 4-(3-Fluoro-4-(((1R,3R)-3-isothiocyanatocyclobutoxy)methyl)phenyl)-1-methyl-1H-pyrazole]: the concentration for half-maximal inhibition (IC50) is 0.11 to 1 µM.

Take `Fc1cc(-c2cccc(C(F)(F)F)c2)ccc1COC1CC(N=C=S)C1` [Example 47, 3-Fluoro-4-(((1R,3R)-3-isothiocyanatocyclobutoxy)methyl)-3′-(trifluoromethyl)-1,1′-biphenyl]: the IC50 was 0.01 to 0.1 µM.

For `Fc1cc(-c2cccc(OCc3ccccc3)c2)ccc1COC1CC(N=C=S)C1` [Example 48, 3′-(Benzyloxy)-3-fluoro-4-(((1R,3R)-3-isothiocyanatocyclobutoxy)methyl)-1,1′-biphenyl], the IC50 was in the range of 0.01 to 0.1 µM.

For the compound `S=C=N[C@H]1C[C@@H](OCc2ccc(Oc3ccccc3)cc2-c2ccccc2)C1` [Example 50, 2-(((1S,3S)-3-Isothiocyanatocyclobutoxy)methyl)-5-phenoxy-1,1′-biphenyl], the IC50 is greater than 1 µM.
